The record followed here is PubChem BioAssay (NCI).

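Interpolation was linear, between the two tested concentrations surrounding the appropriate level; five concentrations were tested over 48 hours in 96-well plates. TGI: total growth inhibition.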 Bounds are passed on as bounds.

Test systems include UO-31 renal; HOP-92 NSCLC; SNB-75 CNS; NCI/ADR-RES ovarian; OVCAR-8 ovarian; U251 CNS; PC-3 prostate; IGROV1 ovarian; UACC-62 melanoma; CAKI-1 renal; SR leukemia; SK-OV-3 ovarian; SK-MEL-5 melanoma; K-562 leukemia; SK-MEL-2 melanoma; HCT-15 colon; HOP-62 NSCLC.
Common to all, as to experiment: growth of human tumour cells (NCI), 48 h

For `O=C1c2ccccc2C(=O)c2c1sc1nc3ccccc3n21`, the TGI in the assay on UO-31 renal was 3.89 µM; with HOP-92 NSCLC it was 74.1 µM; with SNB-75 CNS, 46.1 µM; in the assay on NCI/ADR-RES ovarian it was 4.7 µM; in the assay on OVCAR-8 ovarian, 3.82 µM; with U251 CNS, 9.37 µM. The TGI was 6.79 µM in the assay with PC-3 prostate; 6.34 µM in the assay on IGROV1 ovarian; 3.51 µM with UACC-62 melanoma; 4.27 µM in the assay on CAKI-1 renal; greater than 100 µM with SR leukemia; 19.1 µM in the assay on SK-OV-3 ovarian. Further, the TGI with SK-MEL-5 melanoma was 43.3 µM; with K-562 leukemia, 5.09 µM.
For the compound `O=C1CCCc2cc3c(cc21)CC1(C3)Cc2cc3c(cc2C1)C(=O)CCC3`, the TGI in the assay on UO-31 renal was 81.4 µM; in the assay on HOP-92 NSCLC it was 82.1 µM; in the assay with SNB-75 CNS it was greater than 100 µM; in the assay on NCI/ADR-RES ovarian it was 6.65 µM; with OVCAR-8 ovarian, 36.3 µM; in the assay on U251 CNS, 36.5 µM. Further, the TGI was greater than 100 µM with PC-3 prostate; 15.6 µM in the assay on SK-MEL-2 melanoma; 84.6 µM in the assay on IGROV1 ovarian; 30.9 µM with UACC-62 melanoma; greater than 59.6 µM with HCT-15 colon; greater than 88 µM in the assay on CAKI-1 renal. Further, the TGI was greater than 63.2 µM in the assay on HOP-62 NSCLC, greater than 44.7 µM in the assay with SK-OV-3 ovarian, 7.09 µM in the assay on SK-MEL-5 melanoma and greater than 42.2 µM with K-562 leukemia.
As to `COc1cc([N+](=O)[O-])cc2c1NC(=O)C2(C)SC` (stereo not drawn), the TGI with UO-31 renal was greater than 100 µM; in the assay on SNB-75 CNS it was 90.6 µM; in the assay on NCI/ADR-RES ovarian, greater than 100 µM; in the assay on OVCAR-8 ovarian, greater than 100 µM; with U251 CNS it was greater than 100 µM; in the assay with PC-3 prostate it was greater than 100 µM. The TGI in the assay on SK-MEL-2 melanoma, in the assay with IGROV1 ovarian, in the assay on UACC-62 melanoma, in the assay with HCT-15 colon, in the assay with CAKI-1 renal and with HOP-62 NSCLC was greater than 100 µM each time. Also, the TGI in the assay with SR leukemia was greater than 100 µM; in the assay on SK-OV-3 ovarian, 69.7 µM; in the assay with SK-MEL-5 melanoma, greater than 100 µM; with K-562 leukemia, greater than 100 µM.
As for `COc1cccc(C=C(C#N)C#N)c1OC`, the TGI with UO-31 renal, in the assay with HOP-92 NSCLC, with SNB-75 CNS, with NCI/ADR-RES ovarian, in the assay with OVCAR-8 ovarian and with U251 CNS was greater than 100 µM throughout. Further, the TGI with PC-3 prostate, with IGROV1 ovarian, in the assay with UACC-62 melanoma, with HCT-15 colon, in the assay with CAKI-1 renal and in the assay with HOP-62 NSCLC was greater than 100 µM each time. Also, the TGI with SR leukemia, with SK-OV-3 ovarian, in the assay with SK-MEL-5 melanoma and with K-562 leukemia was greater than 100 µM each time.
Consider `CN(C)c1ccc(/C=C2\C[C@H]3[C@@H]4CC=C5C[C@@H](O)CC[C@]5(C)[C@H]4CC[C@]3(C)[C@H]2O)cc1`, for which the TGI in the assay on UO-31 renal was 36.9 µM; in the assay with SNB-75 CNS it was greater than 100 µM; in the assay on NCI/ADR-RES ovarian it was 43.7 µM; with OVCAR-8 ovarian it was 13.1 µM; in the assay with U251 CNS, 22.6 µM; in the assay with PC-3 prostate, 25.8 µM. Besides, the TGI in the assay with SK-MEL-2 melanoma was 42.9 µM; in the assay with IGROV1 ovarian it was 35.3 µM; in the assay on UACC-62 melanoma, 30.2 µM; with HCT-15 colon, 39.7 µM; in the assay with HOP-62 NSCLC, greater than 100 µM; in the assay with SR leukemia, greater than 100 µM. Besides, the TGI was 88.1 µM with SK-OV-3 ovarian, 34.3 µM in the assay on SK-MEL-5 melanoma and greater than 100 µM with K-562 leukemia.
Take `CC(O)/C=C/C1OC(=O)CC1Nc1ccc(C=O)cc1` (stereo not drawn): the TGI was greater than 100 µM with UO-31 renal; 66.5 µM in the assay on HOP-92 NSCLC; greater than 100 µM with SNB-75 CNS; greater than 100 µM in the assay on NCI/ADR-RES ovarian; greater than 100 µM in the assay with OVCAR-8 ovarian; greater than 100 µM in the assay with U251 CNS. For the same compound, the TGI in the assay on PC-3 prostate is greater than 100 µM; in the assay with SK-MEL-2 melanoma, 74.7 µM; with IGROV1 ovarian, greater than 100 µM; in the assay on UACC-62 melanoma it was 58.1 µM; with HCT-15 colon, greater than 100 µM; in the assay with HOP-62 NSCLC it was 77.4 µM. Besides, the TGI is 73.8 µM in the assay on SR leukemia, greater than 100 µM in the assay on SK-OV-3 ovarian, 33.5 µM in the assay with SK-MEL-5 melanoma and greater than 100 µM with K-562 leukemia.
Take `Nc1nc(Cl)cc(NCC2(CO)CC=CC2)n1`: the TGI in the assay on UO-31 renal, in the assay on HOP-92 NSCLC, in the assay on SNB-75 CNS, in the assay with NCI/ADR-RES ovarian, in the assay with OVCAR-8 ovarian and with U251 CNS was greater than 100 µM each time. The TGI in the assay on PC-3 prostate, with SK-MEL-2 melanoma, in the assay on IGROV1 ovarian, with UACC-62 melanoma, with HCT-15 colon and with CAKI-1 renal was greater than 100 µM each time. Further, the TGI in the assay with HOP-62 NSCLC, in the assay with SK-OV-3 ovarian, in the assay on SK-MEL-5 melanoma and with K-562 leukemia was greater than 100 µM in each case.
Turning to `CC(=O)O[C@H]1C(=O)[C@@]2(C)[C@H]([C@H](OC(=O)c3ccccc3)[C@]3(O)C[C@H](OC(=O)[C@H](O)[C@@H](NC(=O)C(C)(O)C(C)O)c4ccccc4)C(C)=C1C3(C)C)[C@]1(OC(C)=O)CO[C@@H]1C[C@@H]2O` (stereo partly drawn), the TGI is greater than 50 µM with UO-31 renal; 0.398 µM in the assay with SNB-75 CNS; greater than 50 µM in the assay on NCI/ADR-RES ovarian; greater than 50 µM in the assay with OVCAR-8 ovarian; greater than 50 µM in the assay on PC-3 prostate; greater than 50 µM with IGROV1 ovarian. The TGI in the assay with UACC-62 melanoma is greater than 50 µM; in the assay on HCT-15 colon, greater than 50 µM; in the assay on CAKI-1 renal it was greater than 50 µM; with HOP-62 NSCLC, 5.21 µM; in the assay on SR leukemia it was greater than 15.9 µM; in the assay on SK-OV-3 ovarian, 10.9 µM. Also, the TGI in the assay with SK-MEL-5 melanoma and in the assay with K-562 leukemia was greater than 50 µM throughout.
